Data from patent publication US7858621B2 (Amorepacific Corporation, priority 2006, dated 2010).

These compounds were tested against T1, vanilloid receptor (Rattus norvegicus, UniProt O35433) (assay: 45Ca influx test in cultured neonatal rat DRG neurons, inhibition of capsaicin response). Conditions: neonatal rat DRG neurons, capsaicin 0.5 μM, 45Ca influx; read-out: Antagonist Calcium Uptake Test (IC50).
T1 construct: DRG nerve cells from the primary culture of 2 days were equilibrated; endogenous in cells; host or cells: primary culture of dorsal root ganglion neurons from neonatal SD rats
Type: cell-based
In short: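 45Ca influx measured by scintillation counting of SDS-eluted neurons after 10 min at room temperature with test compound, 0.5 μM capsaicin (final) and 10 μCi/ml 45Ca in Ca/Mg-free HEPES-HBSS pH 7.4. Cells: primary DRG neurons from newborn SD rats, cultured 2 days with NGF and Ara-C.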

T1 sequence (O35433 whole entry): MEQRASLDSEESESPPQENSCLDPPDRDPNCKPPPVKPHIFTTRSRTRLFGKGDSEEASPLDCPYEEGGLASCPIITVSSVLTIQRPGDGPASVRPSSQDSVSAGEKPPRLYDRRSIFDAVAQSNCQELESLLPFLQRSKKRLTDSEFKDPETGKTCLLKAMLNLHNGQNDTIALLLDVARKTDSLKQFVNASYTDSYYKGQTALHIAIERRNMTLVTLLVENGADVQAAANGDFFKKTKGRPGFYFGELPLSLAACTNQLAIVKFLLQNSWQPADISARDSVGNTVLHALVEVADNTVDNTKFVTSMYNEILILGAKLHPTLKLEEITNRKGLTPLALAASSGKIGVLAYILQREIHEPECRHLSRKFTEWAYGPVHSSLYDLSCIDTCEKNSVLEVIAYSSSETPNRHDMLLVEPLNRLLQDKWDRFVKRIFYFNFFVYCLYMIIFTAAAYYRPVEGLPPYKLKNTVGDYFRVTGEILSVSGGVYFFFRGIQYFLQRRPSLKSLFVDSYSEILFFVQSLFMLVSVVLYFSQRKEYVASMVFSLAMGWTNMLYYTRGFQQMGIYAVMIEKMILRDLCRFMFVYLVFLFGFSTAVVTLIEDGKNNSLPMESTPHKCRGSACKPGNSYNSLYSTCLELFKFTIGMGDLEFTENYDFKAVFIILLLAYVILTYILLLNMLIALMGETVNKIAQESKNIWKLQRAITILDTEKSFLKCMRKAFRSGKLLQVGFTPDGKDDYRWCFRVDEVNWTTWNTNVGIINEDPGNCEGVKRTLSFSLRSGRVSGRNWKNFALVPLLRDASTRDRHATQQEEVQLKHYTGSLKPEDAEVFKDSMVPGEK

Row | SMILES | IC50
1 | C#Cc1cc(CNC(=O)/C=C/c2ccc(C(F)(F)F)nc2C)cc(F)c1NS(C)(=O)=O [Example 68, N-(3-Ethynyl-5-fluoro-4-methanesulfonylaminobenzyl)-3-(2-methyl-6-trifluoromethylpyridin-3-yl)acrylamide] | 1300 nM
2 | CCCCOc1nc(C(F)(F)F)ccc1/C=C/C(=O)NCc1ccc(NS(C)(=O)=O)c(C)c1 [Example 170, 3-(2-Butoxy-6-trifluoromethyl-pyridin-3-yl)-N-(4-methanesulfonylamino-3-methyl-benzyl)-acrylamide] | 340 nM
3 | CCC/C(=C/C(=O)N[C@H](C)c1cc(F)c(NS(C)(=O)=O)c(F)c1)c1ccc(C(F)(F)F)nc1CCC [Example 277, (Z)-3-(2-Propyl-6-trifluoromethyl-pyridin-3-yl)-hex-2-enoic acid [1-(3,5-difluoro-4-methanesulfonylamino-phenyl)-ethyl]-amide] | 320 nM
4 | C#Cc1cc(CNC(=O)/C=C/c2ccc(C(F)(F)F)nc2-c2ccccc2)cc(F)c1NS(C)(=O)=O [Example 107, N-(3-Ethynyl-5-fluoro-4-methanesulfonylamino-benzyl)-3-(2-phenyl-6-trifluoromethyl-pyridin-3-yl)-acrylamide] | 510 nM
5 | C#Cc1cc(CNC(=O)CCc2ccc(C(F)(F)F)nc2N2CCCC2)cc(F)c1NS(C)(=O)=O [Example 91, N-(3-Ethynyl-5-fluoro-4-methanesulfonylamino-benzyl)-3-(2-pyrrolidin-1-yl-6-trifluoromethyl-pyridin-3-yl)-propionamide] | 580 nM
6 | CCC(C)Oc1nc(C(F)(F)F)ccc1/C=C/C(=O)NCc1ccc(NS(C)(=O)=O)c(C)c1 (centres unmarked) [Example 162, 3-(2-sec-Butoxy-6-trifluoromethyl-pyridin-3-yl)-N-(4-methanesulfonylamino-3-methyl-benzyl)-acrylamide] | 120 nM
7 | C#Cc1cc(CNC(=O)/C=C/c2ccc(C(F)(F)F)nc2OCc2ccccc2)cc(F)c1NS(C)(=O)=O [Example 96, N-(3-Ethynyl-5-fluoro-4-methanesulfonylamino-benzyl)-3-(2-benzyloxy 6-trifluoromethyl-pyridin-3-yl)-acrylamide] | 1700 nM
8 | CS(=O)(=O)Nc1ccc(CNC(=O)/C=C/c2ccc(C(F)(F)F)nc2N2CCC(O)C2)cc1F (centres unmarked) [Example 56, N-(3-Fluoro-4-methanesulfonylamino-benzyl)-3-[2-(3-hydroxy-pyrrolidin-1-yl)-6-trifluoromethyl-pyridin-3-yl]-acrylamide] | > 10000 nM
9 | C#Cc1cc(CNC(=O)/C=C/c2ccc(C(F)(F)F)nc2-c2cccnc2)cc(F)c1NS(C)(=O)=O [Example 126, N-(3-Ethynyl-5-fluoro-4-methanesulfonylamino-benzyl)-3-(2-pyridin-3-yl-6-trifluoromethyl-pyridin-3-yl)-acrylamide] | 4900 nM
10 | CS(=O)(=O)Nc1ccc(CNC(=O)/C=C/c2ccc(C(F)(F)F)nc2Nc2ccccc2)cc1F [Example 127, N-(3-Fluoro-4-methanesulfonylamino-benzyl)-3-(2-phenylamino-6-trifluoromethyl-pyridin-3-yl)-acrylamide] | 320 nM
11 | C#Cc1cc(CNC(=O)/C=C/c2ccc(C(F)(F)F)nc2OCC2CC2)cc(F)c1NS(C)(=O)=O [Example 93, 3-(2-Cyclopropylmethoxy-6-trifluoromethyl-pyridin-3-yl)-N-(3-ethynyl-5-fluoro-4-methanesulfonylamino-benzyl)-acrylamide] | 360 nM
12 | CC(C)(C)c1ccc(OCC(=O)NCc2ccc(NS(C)(=O)=O)c(F)c2)c(Cl)n1 [Example 30, 2-(6-tert-Butyl-2-chloro-pyridin-3-yloxy)-N-(3-fluoro-4-methanesulfonylamino-benzyl)-acetamide] | 3800 nM
13 | CCCCOc1nc(C(F)(F)F)ccc1/C=C/C(=O)N[C@H](C)c1ccc(NS(C)(=O)=O)c(F)c1 [Example 169, (R)-3-(2-Butoxy-6-trifluoromethyl-pyridin-3-yl)-N-[1-(3-fluoro-4-methanesulfonylamino-phenyl)-ethyl]-acrylamide] | 170 nM
14 | C#Cc1cc(CNC(=O)/C=C(/CCC)c2ccc(C(F)(F)F)nc2CCC)cc(F)c1NS(C)(=O)=O [Example 275] | 310 nM
15 | C#Cc1cc(CNC(=O)/C=C/c2ccc(Br)nc2)cc(F)c1NS(C)(=O)=O [Example 15, 3-(6-Bromo-pyridin-3-yl)-N-(3-ethynyl-5-fluoro-4-methanesulfonylamino-benzyl)-acrylamide] | 5900 nM
16 | CCCc1nc(C(F)(F)F)ccc1/C=C/C(=O)NCc1ccc(NS(C)(=O)=O)cc1Cl [Example 251, N-(2-Chloro-4-methanesulfonylamino-benzyl)-3-(2-propyl-6-trifluoromethyl-pyridin-3-yl)-acrylamide] | 700 nM
17 | C=CS(=O)(=O)Nc1ccc(CNC(=O)/C=C/c2ccc(C(F)(F)F)nc2CC(C)C)cc1 [Example 269, N-(4-Ethenesulfonylamino-benzyl)-3-(2-isobutyl-6-trifluoromethyl-pyridin-3-yl)-acrylamide] | 1400 nM
18 | CCCCc1nc(C(F)(F)F)ccc1C#CC(=O)NCc1cc(C)c(NS(C)(=O)=O)c(F)c1 [Example 273, 3-(2-Butyl-6-trifluoromethyl-pyridin-3-yl)-propynoic acid 3-fluoro-4-methanesulfonylamino-5-methyl-benzylamide] | 840 nM

Results, then the compound that gave them:

Row | IC50 | SMILES
19 | 76 nM | CC(C)Nc1nc(C(F)(F)F)ccc1/C=C/C(=O)NCc1cc(F)c(NS(C)(=O)=O)c(C#N)c1 [Example 122, N-(3-Cyano-5-fluoro-4-methanesulfonylamino-benzyl)-3-(2-isopropylamino-6-trifluoromethyl-pyridin-3-yl)-acrylamide]
20 | 25 nM | C#Cc1cc(CNC(=O)/C=C/c2ccc(C(F)(F)F)nc2NCC)cc(F)c1NS(C)(=O)=O [Example 249, 3-(2-Ethylamino-6-trifluoromethyl-pyridin-3-yl)-N-(3-ethynyl-5-fluoro-4-methanesulfonylamino-benzyl)-acrylamide]
21 | 76 nM | C#Cc1cc(CNC(=O)/C=C/c2ccc(C(F)(F)F)nc2C(C)C)cc(F)c1NS(C)(=O)=O [Example 231, N-(3-Ethynyl-5-fluoro-4-methanesulfonylamino-benzyl)-3-(2-isopropyl-6-trifluoromethyl-pyridin-3-yl)-acrylamide]
22 | 55 nM | CCCNc1nc(C(F)(F)F)ccc1/C=C/C(=O)NCc1cc(C)c(NS(C)(=O)=O)c(F)c1 [Example 223, N-(3-Fluoro-4-methanesulfonylamino-5-methyl-benzyl)-3-(2-propylamino-6-trifluoromethyl-pyridin-3-yl)-acrylamide]
23 | 160 nM | C[C@@H](NC(=O)/C=C/c1ccc(C(F)(F)F)nc1N(C)c1ccccc1)c1ccc(NS(C)(=O)=O)c(F)c1 [Example 165, (R)—N-[1-(3-Fluoro-4-methanesulfonylamino-phenyl)-ethyl]-3-[2-(methyl-phenylamino)-6-trifluoromethyl-pyridin-3-yl]-acrylamide]
24 | 42 nM | CCCCc1nc(C(F)(F)F)ccc1/C=C/C(=O)N[C@H](C)c1ccc(NS(C)(=O)=O)c(F)c1 [Example 193, (R)-3-(2-Butyl-6-trifluoromethyl-pyridin-3-yl)-N-[1-(3-fluoro-4-methanesulfonylamino-phenyl)-ethyl]-acrylamide]
25 | 23 nM | C#Cc1cc(CNC(=O)/C=C/c2ccc(C(F)(F)F)nc2NCCC)cc(F)c1NS(C)(=O)=O [Example 221, N-(3-Ethynyl-5-fluoro-4-methanesulfonylamino-benzyl)-3-(2-propylamino-6-trifluoromethyl-pyridin-3-yl)-acrylamide]
26 | 24 nM | CC(C)Cc1nc(C(F)(F)F)ccc1/C=C/C(=O)N[C@H](C)c1cc(F)c(NS(C)(=O)=O)c(F)c1 [Example 245, (R)—N-[1-(3,5-Difluoro-4-methanesulfonylamino-phenyl)-ethyl]-3-(2-isobutyl-6-trifluoromethyl-pyridin-3-yl)-acrylamide]
27 | 98 nM | CCCCCc1nc(C(F)(F)F)ccc1/C=C/C(=O)NCc1cc(C)c(NS(C)(=O)=O)c(F)c1 [Example 214, N-(3-Fluoro-4-methanesulfonylamino-5-methyl-benzyl)-3-(2-pentyl-6-trifluoromethyl)-pyridin-3-yl-acrylamide]
28 | 13 nM | CCNc1nc(C(F)(F)F)ccc1/C=C/C(=O)NCc1ccc(NS(C)(=O)=O)c(C)c1 [Example 247, N-(4-methanesulfonylamino-3-methyl-benzyl)-3-(2-ethylamino-6-trifluoromethyl)-pyridin-3-yl-acrylamide]
29 | 250 nM | C[C@@H](NC(=O)/C=C/c1ccc(C(F)(F)F)nc1Nc1ccccc1)c1ccc(NS(C)(=O)=O)c(F)c1 [Example 149, (R)—N-[1-(3-Fluoro-4-methanesulfonylamino-phenyl)-ethyl]-3-(2-phenylamino-6-trifluoromethyl-pyridin-3-yl)-acrylamide]
30 | 160 nM | CCC/C(=C\C(=O)N[C@H](C)c1cc(F)c(NS(C)(=O)=O)c(F)c1)c1ccc(C(F)(F)F)nc1CCC [Example 278, (E)-3-(2-Propyl-6-trifluoromethyl-pyridin-3-yl)-hex-2-enoic acid [1-(3,5-difluoro-4-methanesulfonylamino-phenyl)-ethyl]-amide]
31 | 12 nM | CCCCc1nc(C(F)(F)F)ccc1/C=C/C(=O)N[C@H](C)c1cc(F)c(NS(C)(=O)=O)c(F)c1 [Example 228, (R)-3-(2-Butyl-6-trifluoromethyl-pyridin-3-yl)-N-[1-(3,5-difluoro-4-methanesulfonylamino-phenyl)-ethyl]-acrylamide]
32 | 32 nM | C=Cc1cc(CNC(=O)/C=C/c2ccc(C(F)(F)F)nc2NCC)cc(F)c1NS(C)(=O)=O [Example 250, 3-(2-Ethylamino-6-trifluoromethyl-pyridin-3-yl)-N-(3-fluoro-4-methanesulfonylamino-5-vinyl-benzyl)-acrylamide]
